“And” between values parts separate entries of the source, which are not always exact repeats. Equal values may be shown once. Read-outs that look alike come from different tables or passages of the source.
Legend:
rat ileal tissues = test: PK1-evoked short-circuit current (Isc) in rat ileum mucosa, Ussing-type flux chambers
[1] = target: T1, GPR73 (prokineticin 1 receptor) (Homo sapiens, UniProt Q8TCW9); test: PK1 functional assay: Ca2+ mobilization on the FLIPR; format: cell-based; details: for inhibition at 10 µM: read-out: Ca^2+ Mobilization % Inh @10 µM; for IC50: HEK 293 GPR73 cells, read-out: Ca^2+ Mobilization IC50
T1 construct: expressed in transfected cells; host or cells: HEK 293
T1 sequence (Q8TCW9 whole entry, species assumed): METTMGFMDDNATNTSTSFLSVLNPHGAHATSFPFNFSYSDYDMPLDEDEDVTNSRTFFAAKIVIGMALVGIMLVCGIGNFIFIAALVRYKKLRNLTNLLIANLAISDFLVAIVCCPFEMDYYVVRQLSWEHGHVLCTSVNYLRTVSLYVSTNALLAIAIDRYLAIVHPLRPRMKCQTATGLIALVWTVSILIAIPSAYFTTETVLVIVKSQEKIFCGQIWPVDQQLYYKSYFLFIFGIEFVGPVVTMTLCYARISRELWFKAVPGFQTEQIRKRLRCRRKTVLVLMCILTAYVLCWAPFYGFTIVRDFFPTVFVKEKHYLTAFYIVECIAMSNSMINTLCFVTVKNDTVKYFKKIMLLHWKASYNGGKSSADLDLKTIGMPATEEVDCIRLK
Procedure: At a time of 24 h prior to running the assay, in cell culture media (DMEM containing high Glucose and L-glutamine, 10% FBS, 1% Pen/Streptomycin, 1% Sodium Pyruvate, 20 mM HEPES, Zeocin 200 mg/L), 100 µL of 1.3*10^6/ml HEK 293 GPR73 (prokineticin 1 receptor) expressing cells were plated in a 96 well poly-d-lysine coated plate (Costar), and incubated at 37° C. and 5% CO2. On the day in which the assay was run, the media was removed and 200 µL of 5× Calcium Plus Dye (Molecular Devices) which was previously resuspended with 200 mL of assay buffer [HBSS w/Ca^2+ and Mg^2+ w/o phenol red, 20 mM HEPES, 0.1% BSA, 10 mL probenecid (710 mg probenecid in 5 mL of 1N NaOH, to which was then added 5 mL HBSS containing 20 mM HEPES)] was added to each well of the 96-well plate. The plate was incubated at 37° C. and 5% CO2 for 30 min in dark. The plate was removed and allowed to reach RT for 15 min in the dark. The assay was then run on the FLIPR. In Brief: base line read for 1 min, compound added (25 μL) and incubated for 4 min, 15 seconds, PK1 ligand preparation added (25 μL) for a final concentration of a previously determined EC50 and fluorescence was counted for 1 min, 45 seconds. Baseline is described as the amount of relative fluorescence read when buffer alone is added to cells. Baseline was subtracted from all wells. Percent of control was calculated as follows: (Baseline subtracted well value is divided by baseline subtracted max value)*100. Percent inhibition is 100 minus the percent of control value.
The IC50 is defined as the amount of a given compound required to inhibit 50% of the maximum signal that is generated by the concentration of PK1 preparation used in our assay. IC50 values were calculated using GraphPad Prism.

CN1[C@@H]2CC[C@H]1C[C@@H](OC(=O)C(CO)c1ccccc1)C2 (stereo partly shown) [Atropine, reference compound]
blockade of the pro-secretory effect of PK1 (rat ileal tissues): not blocked

NC1=Nc2cccc(Cl)c2CN1CCNc1nc(=O)n(Cc2ccc(F)cc2)c(=O)n1Cc1ccc(OC(F)(F)F)cc1 [Cpd 48]
inhibition at 10 µM ([1]; 10 µM): 101%
IC50 [1]: 0.116 µM

NC1=Nc2ccc(Cl)cc2CN1CCNc1nc(=O)n(Cc2ccc(F)cc2)c(=O)n1Cc1ccc(OC(F)(F)F)cc1 [Cpd 49]
inhibition at 10 µM ([1]; 10 µM): 103%
IC50 [1]: 0.233 µM

NC1=Nc2cc(Cl)ccc2CN1CCNc1nc(=O)n(Cc2ccc(F)cc2)c(=O)n1Cc1ccc(OC(F)(F)F)cc1 [Cpd 50]
inhibition at 10 µM ([1]; 10 µM): 99%
IC50 [1]: 0.332 µM

NC1=Nc2ccc(F)cc2CN1CCNc1nc(=O)n(Cc2ccc(F)cc2)c(=O)n1Cc1ccc(OC(F)(F)F)cc1 [Cpd 51]
inhibition at 10 µM ([1]; 10 µM): 99%
IC50 [1]: 0.996 µM

NC1=Nc2cc(F)ccc2CN1CCNc1nc(=O)n(Cc2ccc(F)cc2)c(=O)n1Cc1ccc(OC(F)(F)F)cc1 [Cpd 52]
inhibition at 10 µM ([1]; 10 µM): 104%
IC50 [1]: 0.359 µM

Nc1ncc(CCNc2nc(=O)n(Cc3ccc(F)cc3)c(=O)n2Cc2ccc(OC(F)F)cc2)[nH]1 [Cpd 53]
inhibition at 10 µM ([1]; 10 µM, (further determination)): 100%
inhibition at 10 µM ([1]; 10 µM): 93%
IC50 ([1]; IC50 (further determination)): 0.015 µM
IC50 [1]: 0.036 µM

Nc1ncc(CCNc2nc(=O)n(Cc3ccc(F)cc3)c(=O)n2Cc2ccc(OC(F)(F)F)cc2)[nH]1 [Cpd 54, 6-[2-(2-Amino-3H-imidazol-4-yl)-ethylamino]-3-(4-fluoro-benzyl)-1-(4-trifluoromethoxy-benzyl)-1H-[1,3,5]triazine-2,4-dione]
inhibition at 10 µM ([1]; 10 µM, (further determination)): 95%
inhibition at 10 µM ([1]; 10 µM): 96%
IC50 ([1]; IC50 (further determination)): 0.097 µM
IC50 [1]: 0.027 µM and 0.183 µM

COc1cccc2c1nc(N)n2CCNc1nc(=O)n(Cc2ccc(F)cc2)c(=O)n1Cc1ccc(OC(F)F)cc1 [Cpd 55]
inhibition at 10 µM ([1]; 10 µM): 91%
IC50 [1]: 0.233 µM

NC1=Nc2ccc(O)cc2CN1CCNc1nc(=O)n(Cc2ccc(F)cc2)c(=O)n1Cc1ccc(OC(F)F)cc1 [Cpd 56]
inhibition at 10 µM ([1]; 10 µM): 100%
IC50 [1]: 0.161 µM

COc1ccc2c(c1)N=C(N)N(CCNc1nc(=O)n(Cc3ccc(F)cc3)c(=O)n1Cc1ccc(OC(F)F)cc1)C2 [Cpd 57]
inhibition at 10 µM ([1]; 10 µM): 95%
IC50 [1]: 0.144 µM

COc1ccc(Cn2c(NCCc3cnc(N)[nH]3)nc(=O)n(Cc3ccc(Cl)c(Cl)c3)c2=O)cc1 [Cpd 59]
inhibition at 10 µM ([1]; 10 µM): 96%
IC50 [1]: 0.049 µM

CCc1ccc(Cn2c(=O)nc(NCCc3cnc(N)[nH]3)n(Cc3ccc(OC)cc3)c2=O)cc1 [Cpd 60]
inhibition at 10 µM ([1]; 10 µM): 85%
IC50 [1]: 0.295 µM

COc1ccc(Cn2c(NCCc3cnc(N)[nH]3)nc(=O)n(Cc3ccc(SC)cc3)c2=O)cc1 [Cpd 61]
inhibition at 10 µM ([1]; 10 µM, (further determination)): 102%
inhibition at 10 µM ([1]; 10 µM): 101%
IC50 ([1]; IC50 (further determination)): 0.019 µM
IC50 [1]: 0.021 µM

COc1ccc(Cn2c(NCCc3cnc(N)[nH]3)nc(=O)n(Cc3ccc4c(c3)CCO4)c2=O)cc1 [Cpd 62]
inhibition at 10 µM ([1]; 10 µM): 97%
IC50 [1]: 0.241 µM

Nc1ncc(CCNc2nc(=O)n(Cc3ccc(Cl)c(Cl)c3)c(=O)n2Cc2ccc3c(c2)CCO3)[nH]1 [Cpd 63]
inhibition at 10 µM ([1]; 10 µM): 54%
IC50 [1]: 2.01 µM

CSc1ccc(Cn2c(=O)nc(NCCc3cnc(N)[nH]3)n(Cc3ccc4c(c3)CCO4)c2=O)cc1 [Cpd 64]
inhibition at 10 µM ([1]; 10 µM): 93%
IC50 [1]: 0.17 µM

CCc1ccc(Cn2c(=O)nc(NCCc3cnc(N)[nH]3)n(Cc3ccc4c(c3)CCO4)c2=O)cc1 [Cpd 65]
inhibition at 10 µM ([1]; 10 µM): 35%
IC50 [1]: > 10 µM

Nc1ncc(CCNc2nc(=O)n(Cc3ccc4c(c3)CCO4)c(=O)n2Cc2ccc3c(c2)CCO3)[nH]1 [Cpd 66]
inhibition at 10 µM ([1]; 10 µM): 69%
IC50 [1]: 2.42 µM

COc1ccc(Cn2c(NCCc3cnc(N)[nH]3)nc(=O)n(Cc3ccc4c(c3)nnn4C)c2=O)cc1 [Cpd 67]
inhibition at 10 µM ([1]; 10 µM): 93%
IC50 [1]: 0.171 µM

Cn1nnc2cc(Cn3c(=O)nc(NCCc4cnc(N)[nH]4)n(Cc4ccc5c(c4)CCO5)c3=O)ccc21 [Cpd 68]
inhibition at 10 µM ([1]; 10 µM): 78%
IC50 [1]: 1.41 µM

COc1ccc(Cn2c(NCCn3c(N)nc4ccccc43)nc(=O)n(Cc3ccc(Cl)c(Cl)c3)c2=O)cc1 [Cpd 69]
inhibition at 10 µM ([1]; 10 µM): 102%
IC50 [1]: 0.066 µM

COc1ccc(Cn2c(NCCn3c(N)nc4ccccc43)nc(=O)n(Cc3ccc(SC)cc3)c2=O)cc1 [Cpd 70]
inhibition at 10 µM ([1]; 10 µM): 103%
IC50 [1]: 0.022 µM

CCc1ccc(Cn2c(=O)nc(NCCn3c(N)nc4ccccc43)n(Cc3ccc(OC)cc3)c2=O)cc1 [Cpd 71]
inhibition at 10 µM ([1]; 10 µM): 101%
IC50 [1]: 0.09 µM

COc1ccc(Cn2c(NCCn3c(N)nc4ccccc43)nc(=O)n(Cc3ccc4c(c3)CCO4)c2=O)cc1 [Cpd 72]
inhibition at 10 µM ([1]; 10 µM): 102%
IC50 [1]: 0.058 µM

Nc1nc2ccccc2n1CCNc1nc(=O)n(Cc2ccc(Cl)c(Cl)c2)c(=O)n1Cc1ccc2c(c1)CCO2 [Cpd 73]
inhibition at 10 µM ([1]; 10 µM): 90%
IC50 [1]: 0.186 µM

CSc1ccc(Cn2c(=O)nc(NCCn3c(N)nc4ccccc43)n(Cc3ccc4c(c3)CCO4)c2=O)cc1 [Cpd 74]
inhibition at 10 µM ([1]; 10 µM): 102%
IC50 [1]: 0.034 µM

CCc1ccc(Cn2c(=O)nc(NCCn3c(N)nc4ccccc43)n(Cc3ccc4c(c3)CCO4)c2=O)cc1 [Cpd 75]
inhibition at 10 µM ([1]; 10 µM): 83%
IC50 [1]: 0.507 µM

Nc1nc2ccccc2n1CCNc1nc(=O)n(Cc2ccc3c(c2)CCO3)c(=O)n1Cc1ccc2c(c1)CCO2 [Cpd 76]
inhibition at 10 µM ([1]; 10 µM): 97%
IC50 [1]: 0.225 µM

COc1ccc(Cn2c(NCCn3c(N)nc4ccccc43)nc(=O)n(Cc3ccc4c(c3)nnn4C)c2=O)cc1 [Cpd 77]
inhibition at 10 µM ([1]; 10 µM): 99%
IC50 [1]: 0.055 µM

Cn1nnc2cc(Cn3c(=O)nc(NCCn4c(N)nc5ccccc54)n(Cc4ccc5c(c4)CCO5)c3=O)ccc21 [Cpd 78]
inhibition at 10 µM ([1]; 10 µM, (further determination)): 104%
inhibition at 10 µM ([1]; 10 µM): 102%
IC50 ([1]; IC50 (further determination)): 0.13 µM
IC50 [1]: 0.066 µM

Nc1ncc(CCNc2nc(=O)n(Cc3ccc(Cl)c(Cl)c3)c(=O)n2Cc2ccc(OC(F)F)cc2)[nH]1 [Cpd 79]
inhibition at 10 µM ([1]; 10 µM): 96%
IC50 [1]: 0.102 µM

CSc1ccc(Cn2c(=O)nc(NCCc3cnc(N)[nH]3)n(Cc3ccc(OC(F)F)cc3)c2=O)cc1 [Cpd 80]
inhibition at 10 µM ([1]; 10 µM): 98%
IC50 [1]: 0.032 µM

CCc1ccc(Cn2c(=O)nc(NCCc3cnc(N)[nH]3)n(Cc3ccc(OC(F)F)cc3)c2=O)cc1 [Cpd 81]
inhibition at 10 µM ([1]; 10 µM): 90%
IC50 [1]: 0.502 µM

Nc1ncc(CCNc2nc(=O)n(Cc3ccc4c(c3)CCO4)c(=O)n2Cc2ccc(OC(F)F)cc2)[nH]1 [Cpd 82]
inhibition at 10 µM ([1]; 10 µM): 96%
IC50 [1]: 0.202 µM

Cn1nnc2cc(Cn3c(=O)nc(NCCc4cnc(N)[nH]4)n(Cc4ccc(OC(F)F)cc4)c3=O)ccc21 [Cpd 83]
inhibition at 10 µM ([1]; 10 µM): 98%
IC50 [1]: 0.224 µM

Nc1nc2ccccc2n1CCNc1nc(=O)n(Cc2ccc(Cl)c(Cl)c2)c(=O)n1Cc1ccc(OC(F)F)cc1 [Cpd 84]
inhibition at 10 µM ([1]; 10 µM): 97%
IC50 [1]: 0.345 µM

CSc1ccc(Cn2c(=O)nc(NCCn3c(N)nc4ccccc43)n(Cc3ccc(OC(F)F)cc3)c2=O)cc1 [Cpd 85]
inhibition at 10 µM ([1]; 10 µM): 99%
IC50 [1]: 0.157 µM

CCc1ccc(Cn2c(=O)nc(NCCn3c(N)nc4ccccc43)n(Cc3ccc(OC(F)F)cc3)c2=O)cc1 [Cpd 86]
inhibition at 10 µM ([1]; 10 µM): 94%
IC50 [1]: 0.337 µM

Nc1nc2ccccc2n1CCNc1nc(=O)n(Cc2ccc3c(c2)CCO3)c(=O)n1Cc1ccc(OC(F)F)cc1 [Cpd 87]
inhibition at 10 µM ([1]; 10 µM): 102%
IC50 [1]: 0.223 µM

NC1=N[C@H](O)[C@H]2[C@H]3O[C@]4(O)O[C@@H]([C@@H](O)[C@@]2(N1)[C@@H]4O)[C@]3(O)CO [Tetrodotoxin, reference compound]
blockade of the pro-secretory effect of PK1 (rat ileal tissues): not blocked
